Measured values from patent US12528796B2, “Modulators of RAS GTPase” (Tosk, Inc., priority 2019, dated 2026).

What follows are compounds tested on SW620 cells (KRAS-G12V) (assay: Cell proliferation / cytotoxicity assay (CellTiter-Glo 2.0)). Conditions: Homo sapiens, SW-620, 72 h, SW620 cell line (KRAS-G12V), 72 hours incubation, luminescence (CellTiter-Glo 2.0); read-out: 5W620 IC50.
Assay type: cell-based
Experimental: Compounds are assayed for inhibition of cell proliferation and killing cancer cells. Cytotoxicity assays are conducted according to the following general procedure. SW620 cells (ATCC CCL-227) are maintained in DMEM Low Glucose (Corning 10-014-CV) media supplemented with 10% fetal bovine serum and 1% PenStrep and grown at 37° C. in 5% CO2. Cells are plated into 96 well flat bottom plates (2 million/plate, ˜20,000/well, 200 μL media/well). The cells are allowed to settle and adhere to the plate bottom overnight. Compounds are diluted in media from a 10 mM stock solution starting at 50 μM, using 2-fold dilutions, in a column in a 96-well plate. Media is removed from the plate containing cells and replaced with media containing diluted compounds. Plates are incubated 72 hours at 37° C. in 5% CO2. Plates were allowed to come to room temperature and 100 μL CellTiter-Glo 2.0 reagent (Promega, G924C) is added at room temperature. Plates are shaken for 2 minutes, then allowed to stand for 15 minutes. Luminescence is read with FLx800 (BioTek Instruments). Data is plotted with GraphPad Prizm 8.0.
Dose response curves for the cytotoxicity of exemplary compounds against SW620 (KRAS-G12V) and MIA PaCa-2 (KRAS-G12C) cell lines are shown in FIG. 1A-1J.
With `Cc1nc(NC2CCN(Cc3ccc(Cl)cc3)CC2)nc2ccc(-c3cccc4c3OCC(=O)N4)cc12` [Compound 70] the IC50 was 5 to 10 µM. In the case of `Cc1nc(N2CC[C@H](N3Cc4ccccc4CC3=O)C2)nc2ccc(-c3cccc4c3OCCO4)cc12` [Compound 10], the IC50 is reported as 5 to 10 µM. For `Cc1nc(NC2CCN(Cc3ccc(Cl)cc3)CC2)nc2ccc(-c3cc(F)cc4c3OC(C)(C)C(=O)N4)cc12` [Compound 30], the IC50 was less than 5 µM. `Cc1nc(NC2CCN(Cc3ccc(Cl)cc3)CC2)nc2ccc(-c3cccnc3OCC(C)C)cc12` [Compound 57] showed an IC50 of 5 to 10 µM. With `COc1cccc(-c2ccc3nc(NC4CCN(Cc5ccc(Cl)cc5)CC4)nc(C)c3c2)n1` [Compound 48] the IC50 was 5 to 10 µM. Work on `COc1cc(-c2ccc3nc(NC4CCN(Cc5ccc(Cl)cc5)CC4)nc(C)c3c2)ccn1` [Compound 50] yielded an IC50 of 5 to 10 µM.

Same assay, conditions: SW620 cell line (KRAS-G12V), 72 hours incubation, luminescence (CellTiter-Glo 2.0); read-out: 5W620 IC50
`Cc1nc(NC2CCN(C(=O)c3ccc(Cl)cc3)CC2)nc2ccc(-c3cccc4c3CCCC4)cc12` [Compound 35] gave an IC50 of 5 to 10 µM.
